Test system: Mnk2 (Mnk2a or Mnk2b) or Mnk1
Experiment: not given
Settings: cell culture cells transfected with Mnk2 (Mnk2a or Mnk2b) or Mnk1; cited from earlier work

| Structure (SMILES) | reduction of phosphorylated eIF4E |
| --- | --- |
| Nc1ncnc2n[nH]c(Nc3ccc(F)cc3)c12 [CGP57380] | strong reduction |

Target: T1, human Mnk2a (Homo sapiens, UniProt Q9HBH9)
T1 construct: made in house; host or cells: E. coli BL21 (vector pGEX-4T1)
Experiment: Mnk2a in vitro kinase assay (indirect fluorescence polarization)
Type: biochemical
Settings: GST-Mnk2a pre-activated with ERK2, 20 μM ATP, 30 μM substrate peptide; read-out: MNK2 IC50
Summary of the method: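 Indirect competitive fluorescence polarization: kinase-generated phospho-product displaces a fluorophore-labelled phospho-peptide from a phospho-specific antibody. Enzyme is N-terminal GST-Mnk2a from E. coli, activated with pre-activated ERK2 and 50 μM ATP; substrate is an amidated 12-mer peptide around eIF4E Ser209.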

T1 sequence (Q9HBH9 whole entry): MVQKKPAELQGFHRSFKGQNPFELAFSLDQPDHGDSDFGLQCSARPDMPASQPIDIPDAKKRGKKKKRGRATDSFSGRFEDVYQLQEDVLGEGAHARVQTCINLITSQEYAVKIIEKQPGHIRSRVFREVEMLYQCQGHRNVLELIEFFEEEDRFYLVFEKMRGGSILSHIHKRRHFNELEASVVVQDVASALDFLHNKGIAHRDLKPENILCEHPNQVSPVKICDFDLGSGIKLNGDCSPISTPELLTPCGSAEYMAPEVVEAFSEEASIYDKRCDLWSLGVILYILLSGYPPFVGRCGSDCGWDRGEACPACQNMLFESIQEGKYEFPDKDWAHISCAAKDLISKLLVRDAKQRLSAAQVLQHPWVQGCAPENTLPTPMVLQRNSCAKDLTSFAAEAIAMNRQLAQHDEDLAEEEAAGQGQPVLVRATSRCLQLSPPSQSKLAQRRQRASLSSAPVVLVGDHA

| Structure (SMILES) | IC50 [nM] |
| --- | --- |
| Cc1c(C(=O)NC2CCN(C)C2)sc2ncnc(Nc3ccc(F)cc3OC3CCOCC3)c12 (stereo not shown) [Example 177] | 67 |
| Cc1c(C(=O)N[C@H]2CCC[C@@H]2O)sc2ncnc(Nc3cccnc3OC3CCOCC3)c12 [Compound 278, 5-Methyl-4-[2-(tetrahydro-pyran-4-yloxy)-pyridin-3-ylamino]-thieno[2,3-d]pyrimidine-6-carboxylic acid ((1S,2S)-2-hydroxy-cyclopentyl)-amide] | 79 |
| COc1ccc(CNC(=O)c2sc3ncnc(Nc4ccc(F)cc4OC4CCCNC4)c3c2C)cc1 (stereo not shown) [Example 45] | 36 |
| Cc1c(C(=O)NCCNS(C)(=O)=O)sc2ncnc(Nc3ccc(F)cc3OC3CCOCC3)c12 [Example 189] | 25 |
| Cc1c(C(=O)NCc2ccncc2)sc2ncnc(Nc3ccc(F)cc3OC3CCOCC3)c12 [Example 221] | 38 |
| Cc1c(C(=O)NCc2nccs2)sc2ncnc(Nc3ccc(F)cc3OC3CCCNC3)c12 (stereo not shown) [Example 31] | 43 |
| Cc1c(C(=O)NCCCN2CCCC2)sc2ncnc(Nc3ccc(F)cc3O[C@@H]3CCCOC3)c12 [Example 258, 4-{4-Fluoro-2-[(R)-(tetrahydro-pyran-3-yl)oxy]-phenylamino}-5-methyl-thieno[2,3-d]pyrimidine-6-carboxylic acid (3-pyrrolidin-1-yl-propyl)-amide] | 20 |
| Cc1c(C(=O)Nc2ccn(C)c(=O)n2)sc2ncnc(Nc3ccc(F)cc3OC3CCOCC3)c12 [Example 247] | 44 |
| Cc1c(C(=O)N[C@@H]2CCC[C@H]2O)sc2ncnc(Nc3ccc(F)cc3OC3CCOCC3)c12 [Example 255] | 22 |
| CCCOCCNC(=O)c1sc2ncnc(Nc3ccc(F)cc3OC3CCOCC3)c2c1C [Example 161] | 56 |
| Cc1c(C(=O)NCc2ccccc2)sc2ncnc(Nc3ccc(F)cc3OC3CCCNC3)c12 (stereo not shown) [Example 27] | 48 |
| Cc1c(C(=O)NCCCC2CCOC2)sc2ncnc(Nc3ccc(F)cc3OC3CCCNC3)c12 (stereo not shown) [Example 39] | 58 |
| Cc1c(C(N)=O)sc2ncnc(Nc3ccc(F)cc3O[C@@H]3CCCN(CCO)C3)c12 [Example 80] | 20 |
| Cc1c(C(=O)NCCCN2CCCC2)sc2ncnc(Nc3ccc(F)cc3OC3CCOCC3)c12 [Example 118] | 29 |
| CC(=O)NCCNC(=O)c1sc2ncnc(Nc3ccc(F)cc3OC3CCOCC3)c2c1C [Example 230] | 49 |
| Cc1c(C(N)=O)sc2ncnc(Nc3ccc(F)cc3O[C@@H]3CCCN(Cc4cccn4C)C3)c12 [Example 81] | 6 |
| CNCCNC(=O)c1sc2ncnc(Nc3ccc(F)cc3OC3CCOCC3)c2c1C [Example 146] | 70 |
| Cc1c(C(=O)NCC2CN(C)CCO2)sc2ncnc(Nc3ccc(F)cc3O[C@@H]3CCOC3)c12 (stereo partly shown) [Example 105] | 20 |
| Cc1c(C(=O)NCC2CCOC2)sc2ncnc(Nc3ccc(F)cc3OC3CCCNC3)c12 (stereo not shown) [Example 24] | 62 |
| Cc1c(C(=O)NCCCN2CCOCC2)sc2ncnc(Nc3ccc(F)cc3OC3CCOCC3)c12 [Example 212] | 31 |
| Cc1c(C(=O)NCC#CCN(C)C)sc2ncnc(Nc3cccnc3O[C@@H]3CCCOC3)c12 [Example 264] | 23 |
| Cc1c(C(=O)NCC#CCN(C)C)sc2ncnc(Nc3ccc(F)cc3OC3CCOCC3)c12 [Example 181] | 21 |
| Cc1c(C(=O)NCC2CCOCC2)sc2ncnc(Nc3ccc(F)cc3OC3CCOCC3)c12 [Example 172] | 43 |
| Cc1c(C(=O)NC2CC2)sc2ncnc(Nc3ccc(F)cc3O[C@@H]3CCOC3)c12 [Example 107] | 26 |
| Cc1c(C(=O)NCCc2c[nH]cn2)sc2ncnc(Nc3ccc(F)cc3OC3CCOCC3)c12 [Example 233] | 27 |
| Cc1c(C(=O)NC(C)C)sc2ncnc(Nc3ccc(F)cc3O[C@H]3CCCNC3)c12 [Example 12] | 61 |
| Cc1c(C(=O)NCCCn2ccnc2)sc2ncnc(Nc3ccc(F)cc3OC3CCOCC3)c12 [Example 220] | 42 |
| Cc1c(C(=O)NCC2CCCO2)sc2ncnc(Nc3ccc(F)cc3OC3CCCNC3)c12 (stereo not shown) [Example 25] | 81 |
| Cc1c(C(=O)NCc2cccc3ccccc23)sc2ncnc(Nc3ccc(F)cc3OC3CCCNC3)c12 (stereo not shown) [Example 58] | 64 |
| Cc1c(C(=O)NCCF)sc2ncnc(Nc3ccc(F)cc3OC3CCCNC3)c12 (stereo not shown) [Example 18] | 58 |

From patent US8648068B2, “Heterocycloalkyl-containing thienopyrimidines for pharmaceutical compositions” (Boehringer Ingelheim International GmbH, priority 2010, dated 2014)
